Series [1] can be described thus: Polymerization of unsaturated polyester films under UV lamp (wipe resistance, pendulum hardness). The settings on record: for Passes necessary to achieve resistance to wiping: 0.2 parts in 10 parts resin, 100μ film, 17 m/min. The procedure:
This mixture is stirred until a solution is obtained, which is then drawn out on glass plates with a film drawer (100μ). […] The samples are passed, on a conveyer belt, under the UV-lamp at a rate of 17 m/min. (20 volts).
In addition, the hardness of the film is determined using a pendulum apparatus according to Konig.

For series [2] the following is noted: literature discussion; cited from earlier work.
A short description of series [3]: Stern-Volmer triplet quenching with naphthalene. It is filed as physicochemical. To be noted: C6 H6. From the text: All the peresters give linear Stern-Volmer plots when naphthalene is used as triplet quencher.
Series [4] is described as follows: Photolysis of peresters and analysis of photoproducts. The settings on record: methanol compared with cyclohexane or with other peresters. It is filed as physicochemical. The procedure:
The amount of perester used is in the range of 300-500 mg. The solutions are placed in Pyrex tubes, flushed with nitrogen for 10 min., and sealed with a rubber cap.
After the irradiation, the yield of CO2 is measured by applying N2 pressure and trapping the CO2 with a Ba(OH)2 solution. The photolyzed solutions are evaporated (in the case of perester Ia treatment with excess diazomethane gives the best separation procedure) and again evaporated. Chromatography over 2 mm silica gel plates (E. Merck) with dichloromethane as the developing solvent separates the products. Extraction of the silica gel is done with ether. The identity of each sample is confirmed by GLC or high-pressure LC by comparison with authentic samples or by melting points of the solids.
This is shown by comparison with an authentic sample and combination of spectroscopic techniques. […] The same product is formed when 4-benzoylbenzoic acid is irradiated for 2 hours in CH3 OH in 26% yield. The structure of this secondary photoproduct is shown by independent synthesis (reduction of methyl 4-benzoylbenzoate by NaBH4). Among other secondary photoproducts found in small amounts is a mixture of pinacols. These are confirmed by synthesis of a similar pinacol mixture upon irradiation of methyl 4-benzoylbenzoate in isopropyl alcohol. […]

The nature of series [5]: Polymerization of methyl methacrylate. To be noted: initiator 5 × 10^-2 M, [MMA] = 3.1 M, 25° C., benzene. As to the method:
Commercial methyl methacrylate monomer is washed three times with 2% NaOH solution to remove stabilizer. It is then washed with distilled water three times, dried with molecular sieves, and distilled under vacuum before use. Polymerization solutions are prepared in cylindrical tubes which are degassed and sealed. The amount of polymer formed is determined by precipitating the polymer with an excess of methanol, washing with methanol, and filtering through fine sintered crucibles (previously weighed) followed by drying in a vacuum oven. The irradiation condition is the same as that in the decomposition rate example hereinabove.

Series [6] in a line: Thermal stability / thermal decomposition of peresters in the dark. It is filed as physicochemical.
Series [7] can be described thus: Photodecomposition kinetics and quantum yields at 366 nm (benzophenone-benzhydrol actinometry). It is filed as physicochemical. As to the method:
Kinetic studies are carried out in degassed, sealed tubes by irradiating them with 366 nm light obtained from a Hanovia medium-pressure mercury lamp by combining the Corning Filters 0-52 and 7-60. The decompositions of the […] followed by the carbonyl IR absorption adjacent to the peroxide group (O=COO--) (1770 cm^-1). Benzophenone-benzhydrol redox actinometry are used throughout the study. In particular, a solution of […] (2 mL) in the appropriate solvent is placed in Pyrex tubes (12-mm diameter), degassed, and sealed under vacuum. Three cycles of freeze-thaw removes dissolved oxygen. The tubes are placed in a merry-go-round around a water-cooled light source, removed at different predetermined intervals, and kept frozen in liquid nitrogen in the dark until analysis is done. The estimation of […] done by quantitative IR, monitoring the carbonyl peak at 1770 cm^-1. […] Absorbance is measured with a 0.1 mm NaCl cell against solvent reference. With every run, two tubes containing actinometric solutions (benzophenone (0.1 M) and benzhydrol (0.05 M) in benzene are irradiated.

Another series in a line: Triplet energy. It is filed as physicochemical.
Setting [8] is: 110° C., chlorobenzene, dark, initial concn Ia 5.01, Ib 5.15, Ic 5.19 × 10^-2 M.

SMILES strings stand for the structures. “Also recorded” adds a separate entry of the source.

Turning to `O=C(c1ccccc1)c1ccccc1` [Benzophenone, reference compound], in series [1], the “Passes necessary to achieve resistance to wiping” value (shortened to “Passes necessary”) is > 20. In addition, in series [1] (number of passes for hardness not given), the “Pendulum hardness according to Konig, H” value is recorded as “wet”. Moreover, in series [2], the triplet energy is ~69 kcal/mol.
`Cc1cc(C)c(C(=O)c2ccc(C(=O)OOC(C)(C)C)cc2)c(C)c1` [Ib, Tert-butyl-4-(2',4',6'-trimethylbenzoyl)perbenzoate]: in series [3], the “quenching constant kq τ” value stood at 15. In addition, the “rate of photodecomposition, qualitative” value in series [4] is listed as “the effect of methanol is to slow the rate of decomposition; also recorded: apparently slower rate of decomposition in methanol than either that of Ia or Ic”. In series [5], the “Rate of Polymerization (Rp) of MMA, Rp × 10^5” value is given as 8.31 mL^-1 s^-1. In addition, the “thermal 1st order dec rate × 10^5” value in series [6] (setting [8]) is listed as 1.80 M × 10^5 s^-1. Further, the “thermal half-life t1/2” value in series [6] (setting [8]) was 10.7 h. Moreover, the “apparent first-order photodecomposition rate constant kd × 10^4” value in series [7] (C6 H6, 25° C., 366 nm, I = 6.56 × 10^17 quanta/min, 5.03-6.06 × 10^-2 M, given as kd × 10^4) turned out to be 1.34 s^-1. Besides, the “quantum yield of decomposition (φ of dec)” value in series [7] (C6 H6, 366 nm, perester 5.03-6.06 × 10^-2 M) is 0.80; in series [7] (methanol, TBP 5.08 × 10^-2 M, Ia 5.38, Ib 6.15 × 10^-2 M), 0.62; in series [7] (methanol, no TBP, Ia 5.38, Ib 6.15, Ic 5.10 × 10^-2 M) it was 1.30. Also, the “triplet energy ET” value in “Triplet energy” was found to be 67.4 kcal/mol.
As for `CC(C)(C)OOC(=O)c1ccc(C(=O)c2ccccc2)cc1` [drawing 15], the “Passes necessary” value in series [1] is 12. In addition, the “Pendulum hardness according to Konig, H” value in series [1] (after 12 passes) is listed as 24; in series [1] (after 14 passes) it was 38.
For `COc1ccc(C(=O)c2ccc(C(=O)OOC(C)(C)C)cc2)cc1`, in series [1], the “Passes necessary” value is recorded as 14. In addition, the “Pendulum hardness according to Konig, H” value in series [1] (after 14 passes) was determined as 23; in series [1] (after 16 passes), 26.
For the molecule `C=Cc1ccccc1` [Styrene], the triplet energy in series [2] is listed as 62 kcal/mol.
Consider `Cc1ccc(C(=O)c2ccc(C(=O)OOC(C)(C)C)cc2)cc1`, for which the “Passes necessary” value in series [1] amounted to 13. The “Pendulum hardness according to Konig, H” value in series [1] (after 13 passes) was determined as 23; in series [1] (after 15 passes), 51.
In the case of `O=C(OOC(=O)c1ccccc1)c1ccccc1` [Bz2 O2, benzoyl peroxide, reference compound], the “Rate of Polymerization (Rp) of MMA, Rp × 10^5” value in series [5] (benzophenone 5.5 × 10^-2 M) is on record as 2.58 mL^-1 s^-1. Besides, the “thermal decomposition, in words” value in series [6] (80° C. in benzene) is “a decomposition rate comparable to the literature value”. For the same molecule, the “photodecomposition behaviour, in words” value in series [7] (366 nm radiation, room temperature) is recorded as “photostable”. The “quantum yield of sensitized decomposition (φ of dec)” value came out at 0.32 in series [7] (C6 H6, 4.67 × 10^-2 M, benzophenone 5.89 × 10^-2 M) and 0.17 in series [7] (CCl4, 3.50 × 10^-2 M, benzophenone 3.75 × 10^-2 M). Further, the “sensitized photodecomposition rate constant kd × 10^4” value in series [7] (C6 H6, 25° C., 4.67 × 10^-2 M, benzophenone 5.89 × 10^-2 M, given as kd × 10^4) was determined as 0.64 s^-1.

These data come from patent publication US4416826A, “Peresters and use thereof” (priority 1980, dated 1983).
